The values that follow come from publication PMC9864330, “Two New Alkaloids and a New Butenolide Derivative from the Beibu Gulf Sponge-Derived Fungus Penicillium sp. SCSIO 41413” (Marine Drugs, 2022).

Each structure is given as a SMILES string.

The assay has as its target PI3K (phosphatidylinositol 3-kinase). Nature of the assay: PI3K enzyme activity assay, dose response […]. The class given is biochemical.

Broadly, the IC50 is the point on the concentration scale where inhibition reaches its midpoint. Compound `O=C1OC(O)C(Cc2ccc(O)cc2)=C1c1ccc(O)c(O)c1` (racemic) [compound 12, 8-hydroxyhelvafuranone] registered a half-inhibitory concentration (IC50) of 9.8 µM.

For `O=C1OCC(Cc2ccc(O)c(O)c2)=C1c1ccc(O)c(O)c1` [compound 11, eutypoid F], the midpoint of inhibition, the IC50, lay at 1.7 µM.
